# Measurements from US20100298302A1, “NOVEL PROTEIN KINASE MODULATORS” (priority 2009, published 2010).
# Read-outs that look alike come from different tables or passages of the source.
# Key:
# recombinant PIM-1 = recombinant PIM-1 (Homo sapiens, UniProt P11309); test: PIM-1 kinase assay; format: biochemical; settings: for inhibition at 0.5 µM: 500 nM compound, read-out: PIM1: % inh 500 nM
# Description: The following procedure was used to assay the PIM-1 kinase activity of compounds of the invention. Other methods for assaying PIM-1 and other PIM kinases, as well as methods to assay for activity against various kinases known in the art.
# In a final reaction volume of 50 ul, recombinant PIM-1 (1 ng) was incubated with 12 mM MOPS pH 7.0, 0.4 mM EDTA, glycerol 1%, brij 35 0.002%, 2-mercaptoethanol 0.02%, BSA 0.2 mg/ml, 100 uM KKRNRTLTK, 10 mM MgAcetate, 15 uM ATP, [γ-^33P-ATP] (specific activity approx. 500 cpm/pmol), DMSO 4% and test inhibitor compound at the required concentration. The reaction was initiated by the addition of the Magnesium ATP mixture. After 40 min incubation at 23° C., the reactions were quenched by the addition of 100 ul 0.75% Phosphoric acid, and the labeled peptide collected by filtration through a phosphocellulose filter plate. The plate was washed 4 times with 0.075% phosphoric acid (100 ul per well) and then, after the addition of scintillation fluid (20 ul per well), the counts were measured by a scintillation counter.
# [1] = test system: K-562 human chronic myelogenous leukemia (CML) cells; test: Alamar Blue cell proliferation assay, K-562; format: cell-based
# Description: (§1) A representative cell-proliferation assay protocol using Alamar Blue dye (stored at 4° C., use 20 ul per well) is described hereafter.
# (§2) a. Split and trypsinize cells.
# (§3) b. Count cells using hemocytometer.
# (§4) c. Plate 4,000-5,000 cells per well in 100 μl of medium and seed into a 96-well plate according to the following plate layout. Add cell culture medium only to wells B10 to B12. Wells B1 to B9 have cells but no compound added.
# (§5) d. Add 100 μl of 2× drug dilution to each well in a concentration shown in the plate layout above. At the same time, add 100 μl of media into the control wells (wells B10 to B12). Total volume is 200 μl/well.
# (§6) e. Incubate four (4) days at 37° C., 5% CO2 in a humidified incubator.
# (§7) f. Add 20 μl Alamar Blue reagent to each well.
# (§8) g. Incubate for four (4) hours at 37° C., 5% CO2 in a humidified incubator.
# (§9) h. Record fluorescence at an excitation wavelength of 544 nm and emission wavelength of 590 nm using a microplate reader.
# (§10) In the assays, cells are cultured with a test compound for approximately four days, the dye is then added to the cells and fluorescence of […] dye is detected after approximately four hours. Different types of cells can be utilized in the assays (e.g., HCT-116 human colorectal carcinoma cells, PC-3 human prostatic cancer cells, MDA-MB231 human breast cancer cells, K-562 human chronic myelogenous leukemia (CML) cells, MiaPaca human pancreatic carcinoma cells, MV-4 human acute myeloid leukemia cells, and BxPC3 human pancreatic adenocarcinoma cells).
# MV-4-11 = test: Alamar Blue cell proliferation assay, MV-4-11; format: cell-based; settings: Homo sapiens, MV4-11
# Description: as §1, §2, §3, §4, §5, §6, §7, §8, §9, §10
# [2] = test system: MiaPaca human pancreatic carcinoma cells; test: Alamar Blue cell proliferation assay, MiaPaCa; format: cell-based; settings: MIA PaCa-2
# Description: as §1, §2, §3, §4, §5, §6, §7, §8, §9, §10
# [3] = test system: PC-3 human prostatic cancer cells; test: Alamar Blue cell proliferation assay, PC3; format: cell-based
# Description: as §1, §2, §3, §4, §5, §6, §7, §8, §9, §10
# recombinant human CK2 = molecular target: T1, recombinant human CK2 (Homo sapiens, UniProt P68400); test: cell-free CK2 assay; format: biochemical
# T1 construct: purchased Upstate
# T1 sequence (P68400 whole entry): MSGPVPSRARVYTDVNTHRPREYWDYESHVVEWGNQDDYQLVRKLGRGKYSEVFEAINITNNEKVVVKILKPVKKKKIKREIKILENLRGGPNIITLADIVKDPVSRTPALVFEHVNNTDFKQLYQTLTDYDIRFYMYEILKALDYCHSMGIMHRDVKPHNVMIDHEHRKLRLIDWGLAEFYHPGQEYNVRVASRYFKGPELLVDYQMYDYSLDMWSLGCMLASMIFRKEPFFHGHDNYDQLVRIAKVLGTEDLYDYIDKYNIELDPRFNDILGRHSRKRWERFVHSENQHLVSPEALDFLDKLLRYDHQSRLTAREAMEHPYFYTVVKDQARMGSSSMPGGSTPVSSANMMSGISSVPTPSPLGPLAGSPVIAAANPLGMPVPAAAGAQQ
# T1 sequence (P67870 whole entry partner): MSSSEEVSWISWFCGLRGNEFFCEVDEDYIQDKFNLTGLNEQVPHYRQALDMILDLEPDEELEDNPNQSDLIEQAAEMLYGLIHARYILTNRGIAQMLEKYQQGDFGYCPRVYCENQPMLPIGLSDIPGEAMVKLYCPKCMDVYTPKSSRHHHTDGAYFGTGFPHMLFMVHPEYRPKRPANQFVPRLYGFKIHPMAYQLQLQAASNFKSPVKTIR
# Description: Modulatory activity of compounds described herein was assessed in vitro in cell-free CK2 assays by the following method.
# Test compounds in aqueous solution were added at a volume of 10 microliters, to a reaction mixture comprising 10 microliters Assay Dilution Buffer (ADB; 20 mM MOPS, pH 7.2, 25 mM beta-glycerolphosphate, 5 mM EGTA, 1 mM sodium orthovanadate and 1 mM dithiothreitol), 10 microliters of substrate peptide (RRRDDDSDDD, dissolved in ADB at a concentration of 1 mM), 10 microliters of recombinant human CK2 (25 ng dissolved in ADB; Upstate). Reactions were initiated by the addition of 10 microliters of ATP Solution (90% 75 mM MgCl2, 75 micromolar ATP dissolved in ADB; 10% [γ-^33P]ATP (stock 1 mCi/100 μl; 3000 Ci/mmol (Perkin Elmer) and maintained for 10 minutes at 30 degrees C. The reactions were quenched with 100 microliters of 0.75% phosphoric acid, then transferred to and filtered through a phosphocellulose filter plate (Millipore). After washing each well 5 times with 0.75% phosphoric acid, the plate was dried under vacuum for 5 min and, following the addition of 15 ul of scintilation fluid to each well, the residual radioactivity was measured using a Wallac luminescence counter.
# recombinant human PIM2 = recombinant human PIM2 (Homo sapiens, UniProt Q9P1W9); test: PIM-2 kinase assay; format: biochemical
# Chain of recombinant human PIM2 (Q9P1W9 whole entry): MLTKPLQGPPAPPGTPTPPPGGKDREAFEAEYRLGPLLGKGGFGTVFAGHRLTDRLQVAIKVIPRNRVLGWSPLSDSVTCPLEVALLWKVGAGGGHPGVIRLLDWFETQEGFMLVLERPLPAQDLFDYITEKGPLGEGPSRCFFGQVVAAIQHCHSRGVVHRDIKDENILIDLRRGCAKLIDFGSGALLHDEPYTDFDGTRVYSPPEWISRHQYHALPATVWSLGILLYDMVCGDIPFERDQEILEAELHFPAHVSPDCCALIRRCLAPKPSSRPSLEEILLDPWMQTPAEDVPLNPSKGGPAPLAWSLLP
# Description: Test compounds dissolved and diluted in DMSO (2 μl) were added to a reaction mixture comprising 10 μl of 5× Reaction Buffer (40 mM MOPS pH 7.0, 5 mM EDTA), 10 μl of recombinant human PIM2 solution (4 ng PIM-2 dissolved in dilution buffer (20 mM MOPS pH 7.0; EDTA 1 mM; 5% Glycerol; 0.01% Brij 35; […]; […] 2-mercaptoethanol; 1 mg/ml BSA)) and 8 ul of water. Reactions were initiated by the addition of 10 ul of ATP Solution ([…] (15 mM MgCl2; 75 uM ATP) 1% ([γ-33P]ATP: Stock 1 mCi/100 μl; 3000 Ci/mmol (Perkin Elmer)) and 10 ul of substrate peptide solution (RSRSSYPAGT, dissolved in water at a concentration of 1 mM), Reactions were maintained for 10 min at 30° C. The reactions were quenched with 100 ul of 0.75% Phosphoric acid, then transferred to and filtered through a Phosphocellulose filter plate (Millipore, MSPH-N6B-50). After washing each well 4 times with 0.75% Phosphoric acid, scintillation fluid (20 uL) was added to each well and the residual radioactivity was measured using a Wallac luminescence counter.
# [4] = test system: BxPC3 human pancreatic adenocarcinoma cells; test: Alamar Blue cell proliferation assay, BxPC3; format: cell-based; settings: BXPC-3
# Description: as §1, §2, §3, §4, §5, §6, §7, §8, §9, §10
# MDA-MB45 = test: Alamar Blue cell proliferation assay, MDA-MB45; format: cell-based
# Description: as §1, §2, §3, §4, §5, §6, §7, §8, §9, §10
# SUM-149PT = test: Alamar Blue cell proliferation assay, SUM-149PT; format: cell-based; settings: Homo sapiens, SUM149PT
# Description: as §1, §2, §3, §4, §5, §6, §7, §8, §9, §10
# [5] = 15 μM ATP, read-out: PIM1: IC50 (15 μM ATP)
# Chain of recombinant PIM-1 (P11309 whole entry): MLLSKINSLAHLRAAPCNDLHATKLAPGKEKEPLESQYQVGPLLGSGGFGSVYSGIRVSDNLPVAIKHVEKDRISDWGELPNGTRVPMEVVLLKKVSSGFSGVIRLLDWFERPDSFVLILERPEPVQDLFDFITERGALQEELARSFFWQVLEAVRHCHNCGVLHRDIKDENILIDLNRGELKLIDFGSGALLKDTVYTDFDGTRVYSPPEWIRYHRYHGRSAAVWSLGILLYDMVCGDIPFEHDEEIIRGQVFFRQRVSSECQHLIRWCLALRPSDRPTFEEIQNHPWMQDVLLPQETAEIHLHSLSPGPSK
SMILES,inhibition at 0.5 µM (recombinant PIM-1) [%],IC50 (recombinant PIM-1; [5]) [µM],"IC50 ([1]; K562, Table 4) [µM]",IC50 (MV-4-11; Table 4) [µM],IC50 [2] [µM],IC50 [3] [µM],"IC50 (recombinant PIM-1; Table 5, read-out: PIM1 IC50) [µM]",IC50 (recombinant human CK2) [µM],IC50 (recombinant human PIM2) [µM],"IC50 ([1]; K562, Table 5) [µM]",IC50 (MV-4-11; Table 5) [µM],IC50 [4] [µM],IC50 (MDA-MB45) [µM],IC50 (SUM-149PT) [µM]
CN(c1ccccc1F)c1nc2cc(-c3nnn[nH]3)ccc2n2cccc12,51.4,0.774,> 10,> 10,> 10,> 10,,,,,,,,
O=C(O)c1ccc2c(c1)nc(Nc1cc(F)cc(Cl)c1)c1cccn12,83.9,0.119,> 10,8.55,> 10,> 10,,,,,,,,
O=C(O)c1ccc2c(c1)nc(Nc1ccc3ncccc3c1)c1cccn12,43.2,0.239,> 10,> 10,> 10,,,,,,,,,
NC(=O)c1cc(F)cc(Nc2nc3cc(C(=O)O)ccc3n3cccc23)c1,69.3,0.229,> 10,> 10,> 10,,,,,,,,,
O=C(O)c1ccc2c(c1)nc(NCCn1cccc1)c1cccn12,50.1,0.554,> 10,> 10,> 10,> 10,,,,,,,,
CCOC(=O)c1cccc2c1[nH]c(=O)c1cccn12,,,,,,,> 2.5,> 5,> 2.5,,,,,
c1ccc(Nc2nc3c(-c4nnc[nH]4)cccc3n3cccc23)cc1,,,,,,,< 0.1,< 0.1,< 0.1,> 30,< 5,> 30,15.1,> 30
CCOC(=O)c1cccc2c1nc(Nc1ccccc1F)c1cccn12,,,,,,,> 2.5,> 5,> 2.5,,,,,
CCOC(=O)c1cccc2c1nc(N(C(=O)OC(C)(C)C)c1ccccc1F)c1cccn12,,,,,,,> 2.5,> 5,> 2.5,,,,,
OCc1cccc2c1nc(Nc1ccccc1F)c1cccn12,,,,,,,> 2.5,> 5,< 5,,,,,
CC(C)(C)OC(=O)OCc1cccc2c1nc(N(C(=O)OC(C)(C)C)c1ccccc1F)c1cccn12,,,,,,,> 2.5,> 5,> 2.5,,,,,
Fc1ccccc1Nc1nc2c(-c3nnc[nH]3)cccc2n2cncc12,,,,,,,,< 0.1,< 0.1,< 10,< 1,15.1,< 5,< 10

# Now from value to compound, other results behind:
inhibition at 0.5 µM (recombinant PIM-1) [%],IC50 (recombinant PIM-1; [5]) [µM],"IC50 ([1]; K562, Table 4) [µM]",IC50 (MV-4-11; Table 4) [µM],IC50 [2] [µM],IC50 [3] [µM],"IC50 (recombinant PIM-1; Table 5, read-out: PIM1 IC50) [µM]",IC50 (recombinant human CK2) [µM],IC50 (recombinant human PIM2) [µM],"IC50 ([1]; K562, Table 5) [µM]",IC50 (MV-4-11; Table 5) [µM],IC50 [4] [µM],IC50 (MDA-MB45) [µM],SMILES,IC50 (SUM-149PT) [µM]
95.4,0.095,> 10,2.93,8.92,> 10,,,,,,,,O=C(O)c1ccc2c(c1)nc(Nc1cccc(Cl)c1)c1cccn12,
92.3,0.115,> 10,> 10,> 10,> 10,,,,,,,,N#Cc1cccc(Nc2nc3cc(C(=O)O)ccc3n3cccc23)c1,
43.8,,> 10,> 10,> 10,> 10,,,,,,,,Cc1ccccc1Nc1nc2cc(C(=O)O)ccc2n2cccc12,
77.4,0.15,> 10,4.98,9.37,> 10,,,,,,,,Clc1cccc(Nc2nc3cc(-c4nnn[nH]4)ccc3n3cccc23)c1,
59.3,0.466,> 10,> 10,> 10,> 10,,,,,,,,Clc1ccccc1Nc1nc2cc(-c3nnn[nH]3)ccc2n2cccc12,
63.8,0.514,> 10,7.77,> 10,> 10,,,,,,,,Fc1cc(F)cc(Nc2nc3cc(-c4nnn[nH]4)ccc3n3cccc23)c1,
45.2,,> 10,6.58,> 10,> 10,,,,,,,,FC(F)(F)c1cccc(Nc2nc3cc(-c4nnn[nH]4)ccc3n3cccc23)c1,
6.59,,> 10,> 10,> 10,> 10,,,,,,,,CN(c1cccc(Cl)c1)c1nc2cc(-c3nnn[nH]3)ccc2n2cccc12,
52.4,0.676,> 10,> 10,> 10,> 10,,,,,,,,Cc1ccccc1Nc1nc2cc(-c3nnn[nH]3)ccc2n2cccc12,
25,,> 10,> 10,> 10,> 10,,,,,,,,Clc1cccc(-c2nc3cc(-c4nnn[nH]4)ccc3n3cccc23)c1,
79,0.354,> 10,> 10,> 10,> 10,,,,,,,,COc1cccc(Nc2nc3cc(C(=O)O)ccc3n3cccc23)c1,
78.1,0.156,> 10,> 10,> 10,> 10,,,,,,,,O=C(O)c1ccc2c(c1)nc(Nc1cccc(F)c1)c1cccn12,
49.7,,> 10,> 10,> 10,> 10,,,,,,,,CN(c1cccc(Cl)c1)c1nc2cc(C(=O)O)ccc2n2cccc12,
15.3,,> 10,> 10,> 10,> 10,,,,,,,,CN(c1ccccc1)c1nc2cc(-c3nnn[nH]3)ccc2n2cccc12,
70,0.29,> 10,> 10,> 10,> 10,,,,,,,,Fc1cccc(Nc2nc3cc(-c4nnn[nH]4)ccc3n3cccc23)c1,
10.3,,5.52,3,1.24,9.65,,,,,,,,N#Cc1ccc2c(c1)nc(NCCN1CCCC1)c1cccn12,
20.1,,5.24,2.73,1.29,8.31,,,,,,,,CN(C)CCNc1nc2cc(C#N)ccc2n2cccc12,
